Assay [1] relates to human NSCLC NCI-H3122 cells xenograft. The experiment in a line: Mouse Xenograft Model, monotherapy (NCI-H3122). The conditions noted are these: Female Harlan Nude mice, 50 mg/kg once daily peroral for 17 days, monotherapy (FIG. 2). The assay is classed as in vivo. The procedure:
Female Harlan Nude mice were transplanted s.c. with human NSCLC NCI-H3122 cells to determine the in-vivo anti-tumour activity of GLS inhibitors. 5×10^6 cells in 50% matrigel (BD Bioscience) were injected s.c. on the left flank of the animals. Animals were randomised into groups of 10-15 when tumours reached a volume of ˜200-300 mm^3 and treatment commenced. […] Tumours were measured twice weekly by calliper and volume of tumours calculated using elliptical formula (π/6×width×width×length). Statistical significance was evaluated using a one tailed, t-test. Example 2 was formulated in a 1% Polysorbate 80 and pH adjusted with 1M HCL to a final pH concentration of pH3.5. Data is presented as mean tumour volume with calculated mean standard error bars.

In assay [2] the test system is human NSCLC NCI-H1703 cells xenograft. The experiment in a line: Mouse Xenograft Model, combination therapy study (NCI-H1703). The assay is classed as in vivo. The conditions noted are these: Male Scid mice. The procedure:
Male Scid mice were transplanted s.c. with human NSCLC NCI-H1703 cells (ATCC-CRL-5889) to determine the in-vivo anti-tumour activity of GLS inhibitors. 1×10^7 cells in 50% matrigel (BD Bioscience) were injected s.c. on the left flank of the animals.
Animals were randomised into groups of 10-12 when tumours reached a volume of ˜200-300 mm^3 and treatment commenced. […] Tumours were measured twice weekly by calliper and volume of tumours calculated using elliptical formula (π/6×width×width×length). Statistical significance was evaluated using a one tailed, t-test. Taxotere® (Sanofi) was formulated in a physiological saline. Example 2 was formulated in a 1% Polysorbate 80 and pH adjusted with 1M HCL to a final pH concentration of pH3.5. Data is presented as mean tumour volume with calculated mean standard error bars.

The structures appear in SMILES notation.

`CO[C@H](C(=O)Nc1nnc(N[C@@H]2CCN(c3cccnn3)C2)s1)c1ccccc1` [Example 2(a), (2S)-2-Methoxy-2-phenyl-N-[5-[[(3R)-1-pyridazin-3-ylpyrrolidin-3-yl]amino]-1,3,4-thiadiazol-2-yl]acetamide]: the “Tumour growth (mean tumour volume), NCI-H3122 xenograft” value in assay [1] is recorded as “inhibition of growth in-vivo”. Besides, the “Tumour growth (mean tumour volume), NCI-H1703 xenograft, combination with Taxotere” value in assay [2] (100 mg/kg once daily peroral for 16 days in combination with once weekly intra-venous Taxotere (FIG. 3)) is recorded as “slight regression compared to Taxotere® monotherapy treatment”. Also, in assay [2] (100 mg/kg once daily peroral for 16 days, monotherapy (FIG. 3)), the “Tumour growth (mean tumour volume), NCI-H1703 xenograft, monotherapy” value was “inhibition of growth in-vivo”.

For the origin of these results see US10294221B2, “1, 3, 4-thiadiazole compounds and their use in treating cancer” (AstraZeneca AB, priority 2014, dated 2019).
